In patent publication US20170151256A1, “ANTITUMOR AGENT” (ZERIA PHARMACEUTICAL CO., LTD., priority 2005, published 2017):
Structures can show the parent of a compound that is named as a salt. Where two headings read alike, the source gives them in different places.

Tests used:
[1] = system: human pancreatic cancer cells (MIAPaCa 2); assay: MIAPaCa 2 subcutaneous xenograft, tumor weight; type: in vivo, mouse; conditions: female Balb/c nude mice
Protocol: 3×10^6 cells of human pancreatic cancer cells (MIAPaCa 2) were subcutaneously implanted into right abdomen of female Balb/c nude mice. […] On the day following the final administration, the tumor was removed and weighed. For comparison, vehicle was orally administered to mice in a control group, and the tumor weight was measured in similar manner to that described above. Percent inhibition of tumor growth was calculated based on the tumor weights in each administration group versus that in a control group.

[2] = Toxicity test through 28-day repeated oral administration to rats; type: in vivo
[3] = system: human pancreatic cancer cells (PAN1VC); assay: PAN1VC implanted into pancreas, tumor weight, alone and with gemcitabine; type: in vivo, mouse; conditions: male nude mice
Protocol: 1×10^6 cells of human pancreatic cancer cells (PAN1VC) were implanted into the pancreas of male nude mice. […] Percent inhibition of tumor growth was calculated based on the tumor weights in each administration groups versus that in a control group.

[4] = system: human colon cancer cells (HT-29); assay: HT-29 subcutaneous xenograft, alone and in combination with 5-FU; type: in vivo, mouse
Protocol: 1×10^6 cells of human colon cancer cells (HT-29) were subcutaneously implanted into right abdomen of female Balb/c nude mice. […] For comparison, 5-FU was intraperitoneally administered to mice in positive control groups at doses of 3, 10, and 30 mg/kg once daily for 12 days. […] On the day following the final administration, the tumor was removed and weighed. […] Percent inhibition of tumor growth was calculated based on the tumor weights in each administration groups versus that in a control group.

[5] = Toxicity test through 28-day repeated oral administration to dogs; type: in vivo
[6] = system: human colon cancer cells (HT-29); assay: HT-29 subcutaneous xenograft, tumor weight; type: in vivo, mouse; conditions: female Balb/c nude mice
Protocol: 1×10^6 cells of human colon cancer cells (HT-29) were subcutaneously implanted into right abdomen of female Balb/c nude mice. […] On the day following the final administration, the tumor was removed and weighed. In a control group, vehicle was orally administered to mice, and the tumor weight was measured in similar manner to that described above. Percent inhibition of tumor growth was calculated based on the tumor weights in each administration groups versus that in a control group.

[7] = system: human colon cancer cells (C170HM2); assay: C170HM2 intraperitoneal model, tumor metastasis to the liver; type: in vivo, mouse; conditions: 40 days after implantation, male nude mice
Protocol: 1.5×10^6 cells of human colon cancer cells (C170HM2) were intraperitoneally injected into male nude mice. […] Meanwhile, in a positive control group, the combination of 5-fluorouracil (hereinafter called “5-FU”) and leucovorin were intravenously administered (for each compound, 25 mg/kg/injection) one, four, seven, and 10 days after tumor implantation. Forty days after implantation of C170HM2 tumor, the weight of tumor-metastasized liver was measured.

[8] = system: human pancreatic cancer PANC-1; conditions: Non-Patent Document 12, cited from earlier work
[9] = system: human pancreatic cancer cells (PANC-1); assay: PANC-1 implanted into pancreas, lethal model, survival rate; type: in vivo, mouse; conditions: gemcitabine hydrochloride 100 mg/kg i.v. on days 7, 10, 14 after implantation; 40 days after administration start (46 days after implantation); female SCID mice (control […])
Protocol: (§1) A small piece (70 to 80 mg) of human pancreatic cancer cells (PANC-1) was implanted into the pancreas of female SCID mice (15 mice for each group). […] In another group of mice, on seven, 10, and 14 days after the implantation, gemcitabine hydrochloride (Gemzar Injection®) as a positive control was intravenously injected at a dose of 100 mg/kg.

[10] = system: human pancreatic cancer cells (PANC-1); assay: PANC-1 implanted into pancreas, lethal model, survival with gemcitabine combination (Table 1); type: in vivo, mouse; conditions: female SCID mice, compound A1 100 mg/kg oral once daily from day 7, GEM 100 mg/kg i.v. days 7, 10, 14
Protocol: as §1, with “after” for “after the”, “Injection®)” for “Injection®) as a positive control”, “administered” for “injected”

[11] = system: human colon cancer xenograft; conditions: Non-Patent Document 14, cited from earlier work
[12] = system: pancreatic cancer or colon cancer xenograft; conditions: only observed at a high dose of 200 mg/kg or more; Patent Document 1; cited from earlier work
[13] = 30, 100, 300 or 1,000 mg/kg oral for 28 days, male and female SD rats, any group
[14] = 30, 100, 300 or 1,000 mg/kg oral for 28 days, male and female beagle dogs, any group
[15] = rats, 1,000 mg/kg for 28 consecutive days (summary statement)
[16] = dogs, 1,000 mg/kg for 28 consecutive days (summary statement)

For “calcium (R)-(−)-3-[3-(1-tert-butylcarbonylmethyl-2-oxo-5-cyclohexyl-1,3,4,5-tetrahydro-2H-1,5-benzodiazepin-3-yl)ureido]benzoate [compound A1]”, the “Percent inhibition of tumor growth (tumor weight vs control)” value (from here on “Percent inhibition of tumor growth”) ([1]; 30 mg/kg oral once daily for 21 days) was 40%, the “Percent inhibition of tumor growth” value ([1]; 100 mg/kg oral once daily for 21 days) was 42% and the “Abnormality in body weight, feed intake, ophthalmological test, urine test, organ weight, autopsy finding, histopathological test” value (shortened to “Abnormality … histopathological test”) [2, 13] was “no abnormality was found”. The Deaths [2, 13] was “no deaths were observed”, the “Percent inhibition of tumor growth” value ([3]; compound A1 alone, 30 mg/kg oral once daily for 36 days) was 19% and the “Percent inhibition of tumor growth” value ([3]; compound A1 alone, 100 mg/kg oral once daily for 36 days) was 23%. The “Percent inhibition of tumor growth” value ([4]; compound A1 alone, 30 mg/kg oral once daily for 12 days from 10 days after implantation) was 34%, the “Abnormality in body weight, feed intake, ophthalmological test, electrocardiogram, blood pressure, urine test, hematological test, blood biochemical test, organ weight, autopsy finding” value [5, 14] was “no abnormality was found” and the Deaths [5, 14] was “no deaths were observed”. The “Percent inhibition of tumor growth” value ([6]; 30 mg/kg oral once daily for 17 days from 4 days after implantation) was 44%, the “Percent inhibition of tumor growth” value ([6]; 100 mg/kg oral once daily for 17 days from 4 days after implantation) was 50% and the “Inhibition of tumor metastasis to the liver (weight of tumor-metastasized liver)” value ([7]; 3 mg/kg oral once daily) was 73%. The “Inhibition of tumor metastasis to the liver (weight of tumor-metastasized liver)” value ([7]; 30 mg/kg oral once daily) was 81%.
In the case of `Cc1cccc(NC(=O)N[C@@H]2N=C(c3ccccc3)c3ccccc3N(C)C2=O)c1` [L-365,260], the Gastrin-induced tumor growth ([8]; with gastrin stimulation) is listed as “suppresses gastrin-induced tumor growth” and the “Tumor growth without stimulation by gastrin” value ([8]; without gastrin stimulation) is listed as “does not suppress tumor growth”.
With `Nc1ccn([C@@H]2O[C@H](CO)[C@@H](O)C2(F)F)c(=O)n1` [gemcitabine hydrochloride] the “Percent inhibition of tumor growth” value ([3]; gemcitabine hydrochloride alone, 5 mg/kg i.v. on days 1, 3, 6 after implantation) was 32%, the Survival rate [9] was 93.3% and the “Survival rate at 60 days after initiation of administration (66 days after implantation)” value ([10]; alone or combined (control 0)) was 0%. The Median survival time ([10]; alone or combined (control 39)) was 48 days, the “Survival rate at 50 days after initiation of administration (56 days after implantation)” value ([10]; alone or combined (control 40)) was 20% and the Average survival time ([10]; alone or combined (control 43)) was 46.9 days. The “Days of death of the last individual” value ([10]; alone or combined (control 56)) was 54 days.
In the case of `O=c1[nH]cc(F)c(=O)[nH]1` [5-FU, 5-fluorouracil], the “Percent inhibition of tumor growth” value ([4]; 5-FU alone, 3 mg/kg i.p. once daily for 12 days) is reported as 24%, the “Percent inhibition of tumor growth” value ([4]; 5-FU alone, 10 mg/kg i.p. once daily for 12 days) is reported as 30% and the “Percent inhibition of tumor growth” value ([4]; 5-FU alone, 30 mg/kg i.p. once daily for 12 days) is reported as 58%.
In the case of `C[C@](Cc1c[nH]c2ccccc12)(NC(=O)OC1[C@H]2C[C@@H]3C[C@@H](C[C@H]1C3)C2)C(=O)NC[C@H](NC(=O)CCC(=O)O)c1ccccc1` (some centres unmarked) [CI-988], the “Cell growth suppressive effect” value ([11]; oral 25 mg/kg, without non-physiological gastrin stimulation) is given as “exhibits cell growth suppressive effect” and the “Cell growth suppressive effect” value ([11]; oral 50 mg/kg) is given as “exhibits no cell growth suppressive effect”.
In the case of `CNc1cccc(NC(=O)N[C@@H]2N=C(c3ccccn3)c3ccccc3N(CC(=O)C(C)(C)C)C2=O)c1` [YF476], the Tumor-shrinking effect [12] is listed as “exhibits tumor-shrinking effect”.
For `CC(C)(C)C(=O)CN1C(=O)[C@H](NC(=O)Nc2cccc(C(=O)O)c2)CN(C2CCCCC2)c2ccccc21` [compound A, (R)-(−)-3-[3-(1-tert-butylcarbonylmethyl-2-oxo-5-cyclohexyl-1,3,4,5-tetrahydro-2H-1,5-benzodiazepin-3-yl)ureido]benzoic acid], the “Abnormality … histopathological test” value [2, 15] was “no abnormality was found”, the Deaths [2, 15] was “no deaths were observed” and the “Abnormality … histopathological test” value [5, 16] was “no abnormality was found”. The Deaths [5, 16] was “no deaths were observed”.
